In brackets after ≈: the same amount, converted by molar mass.
Assays:
S. aureus (MRSA) -381 = assay: Anti-bacterial activity test 1: minimum growth inhibiting concentration (MIC); type: cell-based; details: Staphylococcus aureus, strain -381 (PRC series), read-out: Anti-bacterial activity against MRSA MIC
Protocol: (§1) Minimum growth inhibiting concentration (MIC) of the compound represented by the general formula (I) was determined against some typical MRSA strains.

S. aureus (MRSA) PRC-376 = assay: as above; type: cell-based; details: Staphylococcus aureus, strain PRC-376, read-out: Anti-bacterial activity against MRSA MIC
Protocol: as §1

S. aureus (MRSA) -385 = assay: as above; type: cell-based; details: Staphylococcus aureus, strain -385 (PRC series), read-out: Anti-bacterial activity against MRSA MIC
Protocol: as §1

S. aureus (MRSA) -400 = assay: as above; type: cell-based; details: Staphylococcus aureus, strain -400 (PRC series), read-out: Anti-bacterial activity against MRSA MIC
Protocol: as §1

S. aureus (MRSA) -390 = assay: as above; type: cell-based; details: Staphylococcus aureus, strain -390 (PRC series), read-out: Anti-bacterial activity against MRSA MIC
Protocol: as §1

S. aureus (MRSA) -389 = assay: as above; type: cell-based; details: Staphylococcus aureus, strain -389 (PRC series), read-out: Anti-bacterial activity against MRSA MIC
Protocol: as §1

S. aureus (MRSA) -395 = assay: as above; type: cell-based; details: Staphylococcus aureus, strain -395 (PRC series), read-out: Anti-bacterial activity against MRSA MIC
Protocol: as §1

[1] = tested on: methicillin resistant Staphylococcus aureus (TY-5548, higher resistant bacterium); assay: Anti-bacterial activity test 4: propagation under cup with dust adsorbing oil on agar plate; type: cell-based; details: dust adsorbing oil incorporated with 0.1% of compound; 100 µl in cup; 4°C overnight, then 37°C for 24 hours
Protocol: Anti-MRSA activity was afforded to a dust adsorbing oil for a dust control mop as described below.
Only non-volatile ingredients were recovered from a dust adsorbing oil for a mop by spraying (manufactured by Yamazaki Sangyo), and incorporated with 0.1% of Compound (V).
A 200 µl of a suspension containing methicillin resistant Staphylococcus aureus (TY-5548, higher resistant bacterium) in a level of 1 x 10⁵ - 10⁴ cells/ml was smeared on a plate count agar, on which stainless steel cups having a diameter of 12 mm were placed to add 100 µl of the oil solution prepared above. The plate thus having inoculated the bacterium was left standing at 4°C overnight and then cultured at 37°C for 24 hours. The propagation of the bacterium under the cup was evaluated.

[2] = tested on: TY-5548, higher resistant bacterium; assay: Anti-bacterial activity test 5: viable cell count on paint film; type: cell-based, Staphylococcus aureus; details: paint film with 0.1% of compound
Description: The compound of the general formula (I) was blended with a paint on the assumption that the paint is used around the medical facilities like in the case of Anti-bacterial activity test 3.
With an oil paint (manufactured by Shinto Toryo) 0.1% of the compound of the general formula (I) was mixed, and an appropriate dilution with thinner was spread over a stainless steel plate having a size of 3 cm x 3 cm and air-dried. The sample on which the film had been formed was sterilized with an alcohol and dried. The sample plate was placed in a glass dish, inoculated with 200 µl of the inoculation medium in Anti-bacterial activity test 3 (TY-5548, higher resistant bacterium) over the surface of the film and incubated at 37°C for 18 hours. After the incubation, 20 ml of a sterile physiological saline buffer was added to the medium to disperse the viable cells into the medium, and then the viable cells on the test piece were calculated in the same manner as in Anti-bacterial activity test 2.

[3] = tested on: methicillin (DMPPC) resistant Staphylococcus aureus TY-5548; assay: Anti-bacterial activity test 2: viable cell count on processed cotton cloth; type: cell-based; details: stated for the test as a whole (TY-5548 and TY-5552)
Protocol: A cotton cloth was subjected to anti-bacterial processing with the compound of the general formula (I). The processing was carried out by applying a solution containing 0.05% of the compound of the general formula (I) and 1% of an organic silicone (fiber finish, Miki Riken) on the cotton cloth with the padding method. A cotton cloth (30 cm x 40 cm) was padded so that the pick-up was 70%, dried with hot air at 110°C for 3 minutes and further cured at 170°C for 1 minute. The anti-bacterial effect of the cotton cloth subjected to the anti-bacterial processing was evaluated with methicillin (DMPPC) resistant Staphylococcus aureus by the following method. The strains were selected on the basis of their resistances, and TY-5548 was selected as a higher resistant strain and TY-5552 as a lower resistant strain.
A 0.2 g sample of the cotton cloth was weighed, placed in a screw capped 30 ml vial and sterilized under pressure. The test strains had been pre-cultured and diluted with nutrient broth for inoculation to 5 - 30 x 10⁵ cells/ml. This culture medium was uniformly inoculated at an amount of 200 µl with a micropipette to the sample cloth, which was then incubated in an incubator at 37°C for 18 hours. […] The colonies grown were counted to calculate the viable cells in the sample piece.

Compound Clc1ccc(C(Cn2ccnc2)OCc2ccccc2Cl)cc1 (centres unmarked) [p-Cl, H, o-Cl, H, 1-[2-(2-chlorobenzyloxy)-2-(4-chlorophenyl)-ethyl]imidazole] has an MIC (S. aureus (MRSA) -381) of 25 µg/mL (≈ 72 µM), an MIC (S. aureus (MRSA) PRC-376) of 50 µg/mL (≈ 144 µM) and an MIC (S. aureus (MRSA) -385) of 50 µg/mL (≈ 144 µM). For the same compound, the MIC (S. aureus (MRSA) -400) was 25 µg/mL (≈ 72 µM), the MIC (S. aureus (MRSA) -390) was 50 µg/mL (≈ 144 µM) and the MIC (S. aureus (MRSA) -389) was 50 µg/mL (≈ 144 µM). For the same compound, the MIC (S. aureus (MRSA) -395) was 50 µg/mL (≈ 144 µM).

With Clc1ccccc1C(Cn1ccnc1)OCc1ccccc1 (centres unmarked) [o-Cl, H, H, H, 1-[2-benzyloxy-2-(2-chlorophenyl)-ethyl]imidazole] the MIC (S. aureus (MRSA) -381) was 50 µg/mL (≈ 160 µM), the MIC (S. aureus (MRSA) PRC-376) was 100 µg/mL (≈ 320 µM) and the MIC (S. aureus (MRSA) -385) was 100 µg/mL (≈ 320 µM). The MIC (S. aureus (MRSA) -400) was 50 µg/mL (≈ 160 µM), the MIC (S. aureus (MRSA) -390) was 100 µg/mL (≈ 320 µM) and the MIC (S. aureus (MRSA) -389) was 100 µg/mL (≈ 320 µM). It also gave an MIC (S. aureus (MRSA) -395) of 100 µg/mL (≈ 320 µM).

Clc1ccc(COC(Cn2ccnc2)c2ccc(Cl)cc2)cc1 (centres unmarked) [p-Cl, H, p-Cl, H, 1-[2-(4-chlorobenzyloxy)-2-(4-chlorophenyl)-ethyl]imidazole] gave an MIC (S. aureus (MRSA) -381) of 25 µg/mL (≈ 72 µM), an MIC (S. aureus (MRSA) PRC-376) of 50 µg/mL (≈ 144 µM) and an MIC (S. aureus (MRSA) -385) of 50 µg/mL (≈ 144 µM). The MIC (S. aureus (MRSA) -400) was 25 µg/mL (≈ 72 µM), the MIC (S. aureus (MRSA) -390) was 50 µg/mL (≈ 144 µM) and the MIC (S. aureus (MRSA) -389) was 50 µg/mL (≈ 144 µM). For the same compound, the MIC (S. aureus (MRSA) -395) was 50 µg/mL (≈ 144 µM).

Clc1ccc(COC(Cn2ccnc2)c2ccccc2Cl)cc1 (centres unmarked) [o-Cl, H, p-Cl, H, 1-[2-(4-chlorobenzyloxy)-2-(2-chlorophenyl)-ethyl]imidazole] was tested, and the MIC (S. aureus (MRSA) -381) was 12.5 µg/mL (≈ 36 µM), the MIC (S. aureus (MRSA) PRC-376) was 25 µg/mL (≈ 72 µM) and the MIC (S. aureus (MRSA) -385) was 25 µg/mL (≈ 72 µM). For the same compound, the MIC (S. aureus (MRSA) -400) was 12.5 µg/mL (≈ 36 µM), the MIC (S. aureus (MRSA) -390) was 25 µg/mL (≈ 72 µM) and the MIC (S. aureus (MRSA) -389) was 25 µg/mL (≈ 72 µM). The MIC (S. aureus (MRSA) -395) was 25 µg/mL (≈ 72 µM), the “propagation of the bacterium under the cup” value [1] was “no propagation was observed” and the “cell reducing rate of the inoculated cells” value [2] was at least 99.9%. The “cell reducing rate of the inoculated cells” value [3] was at least 99.9%.

Clc1ccccc1COC(Cn1ccnc1)c1ccccc1Cl (centres unmarked) [o-Cl, H, o-Cl, H, 1-[2-(2-chlorobenzyloxy)-2-(2-chlorophenyl)-ethyl]imidazole] gave an MIC (S. aureus (MRSA) -381) of 25 µg/mL (≈ 72 µM), an MIC (S. aureus (MRSA) PRC-376) of 25 µg/mL (≈ 72 µM) and an MIC (S. aureus (MRSA) -385) of 25 µg/mL (≈ 72 µM). It also gave an MIC (S. aureus (MRSA) -400) of 25 µg/mL (≈ 72 µM), an MIC (S. aureus (MRSA) -390) of 25 µg/mL (≈ 72 µM) and an MIC (S. aureus (MRSA) -389) of 50 µg/mL (≈ 144 µM). For the same compound, the MIC (S. aureus (MRSA) -395) was 25 µg/mL (≈ 72 µM).
